Data published in patent publication US12077503B2, “Substituted cyclic amides and their use as herbicides” (FMC CORPORATION, priority 2015, dated 2024).

Legend:
Assay type in all cases: in vivo
Kochia (Kochia scoparia) [1] = assay: Test A preemergence; details: Bassia scoparia, pre-emergence, 240 h; for pest or weed control at 125 g/ha: 125 g ai/ha, Preemergence, visual injury rating after approximately 10 d, read-out: Kochia plant response rating (0 to 100 scale, 0 is no effect, 100 is complete control); for pest or weed control at 500 g/ha: 500 g ai/ha, preemergence, visual injury rating about 10 d after treatment, 0 to 100 scale (0 no effect, 100 complete control), read-out: Kochia plant response rating
Method in brief: (§1)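 Seeds sprayed preemergence with a directed soil spray, or plants at 2 to 10 cm height and one- to two-leaf stage sprayed postemergence, with test chemicals in a non-phytotoxic solvent mixture containing surfactant, in loam soil–sand blend. Injury rated visually against untreated controls after about 10 d in greenhouse, 0 (no effect) to 100 (complete control).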

[2] = tested on: barnyardgrass (Echinochloa crus-galli); assay: Test A preemergence; details: Echinochloa crus-galli, pre-emergence, 240 h; for pest or weed control at 125 g/ha: 125 g ai/ha, Preemergence, visual injury rating after approximately 10 d, read-out: Barnyardgrass plant response rating (0 to 100 scale, 0 is no effect, 100 is complete control); for pest or weed control at 500 g/ha: 500 g ai/ha, preemergence, visual injury rating about 10 d after treatment, 0 to 100 scale (0 no effect, 100 complete control), read-out: Barnyardgrass plant response rating
Method in brief: as §1

[3] = tested on: giant foxtail (Setaria faberii); assay: Test A preemergence; details: Setaria faberi, pre-emergence, 240 h; for pest or weed control at 125 g/ha: 125 g ai/ha, Preemergence, visual injury rating after approximately 10 d, read-out: Foxtail, Giant plant response rating (0 to 100 scale, 0 is no effect, 100 is complete control); for pest or weed control at 500 g/ha: 500 g ai/ha, preemergence, visual injury rating about 10 d after treatment, 0 to 100 scale (0 no effect, 100 complete control), read-out: Foxtail, Giant plant response rating
Method in brief: as §1

[4] = tested on: pigweed (Amaranthus retroflexus); assay: Test A preemergence; details: Amaranthus retroflexus, pre-emergence, 240 h; for pest or weed control at 125 g/ha: 125 g ai/ha, Preemergence, visual injury rating after approximately 10 d, read-out: Pigweed plant response rating (0 to 100 scale, 0 is no effect, 100 is complete control); for pest or weed control at 500 g/ha: 500 g ai/ha, preemergence, visual injury rating about 10 d after treatment, 0 to 100 scale (0 no effect, 100 complete control), read-out: Pigweed plant response rating
[5] = tested on: ragweed (common ragweed, Ambrosia elatior); assay: Test A preemergence; details: Ambrosia artemisiifolia, pre-emergence, 240 h; for pest or weed control at 125 g/ha: 125 g ai/ha, Preemergence, visual injury rating after approximately 10 d, read-out: Ragweed plant response rating (0 to 100 scale, 0 is no effect, 100 is complete control); for pest or weed control at 500 g/ha: 500 g ai/ha, preemergence, visual injury rating about 10 d after treatment, 0 to 100 scale (0 no effect, 100 complete control), read-out: Ragweed plant response rating
Method in brief: as §1

[6] = tested on: ryegrass, Italian (Italian ryegrass, Lolium multiflorum); assay: Test A preemergence; details: Lolium multiflorum, pre-emergence, 240 h; for pest or weed control at 125 g/ha: 125 g ai/ha, Preemergence, visual injury rating after approximately 10 d, read-out: Ryegrass, Italian plant response rating (0 to 100 scale, 0 is no effect, 100 is complete control); for pest or weed control at 500 g/ha: 500 g ai/ha, preemergence, visual injury rating about 10 d after treatment, 0 to 100 scale (0 no effect, 100 complete control), read-out: Ryegrass, Italian plant response rating
Method in brief: as §1

[7] = tested on: Galium (catchweed bedstraw, Galium aparine); assay: Test A postemergence; details: Galium, post-emergence, 240 h, 125 g ai/ha, Postemergence; visual injury after approximately 10 d; 0 to 100 scale where 0 is no effect and 100 is complete control; read-out: Plant response rating, Galium
Method in brief: as §1

Kochia (Kochia scoparia) [8] = assay: Test A postemergence; details: Bassia scoparia, post-emergence, 240 h, 125 g ai/ha, Postemergence; visual injury after approximately 10 d; 0 to 100 scale where 0 is no effect and 100 is complete control; read-out: Plant response rating, Kochia
Method in brief: as §1

[9] = tested on: barnyardgrass (Echinochloa crus-galli); assay: Test A postemergence; details: Echinochloa crus-galli, post-emergence, 240 h, 125 g ai/ha, Postemergence; visual injury after approximately 10 d; 0 to 100 scale where 0 is no effect and 100 is complete control; read-out: Plant response rating, Barnyardgrass
Method in brief: as §1

[10] = tested on: blackgrass (Alopecurus myosuroides); assay: Test A postemergence; details: Alopecurus myosuroides, post-emergence, 240 h, 125 g ai/ha, Postemergence; visual injury after approximately 10 d; 0 to 100 scale where 0 is no effect and 100 is complete control; read-out: Plant response rating, Blackgrass
Method in brief: as §1

corn (Zea mays) = assay: Test A postemergence; details: Zea mays, post-emergence, 240 h, 125 g ai/ha, Postemergence; visual injury after approximately 10 d; 0 to 100 scale where 0 is no effect and 100 is complete control
Method in brief: as §1

[11] = tested on: giant foxtail (Setaria faberii); assay: Test A postemergence; details: Setaria faberi, post-emergence, 240 h, 125 g ai/ha, Postemergence; visual injury after approximately 10 d; 0 to 100 scale where 0 is no effect and 100 is complete control; read-out: Plant response rating, Foxtail, Giant
Method in brief: as §1

[12] = tested on: pigweed (Amaranthus retroflexus); assay: Test A postemergence; details: Amaranthus retroflexus, post-emergence, 240 h, 125 g ai/ha, Postemergence; visual injury after approximately 10 d; 0 to 100 scale where 0 is no effect and 100 is complete control; read-out: Plant response rating, Pigweed
Method in brief: as §1

[13] = tested on: ragweed (common ragweed, Ambrosia elatior); assay: Test A postemergence; details: Ambrosia artemisiifolia, post-emergence, 240 h, 125 g ai/ha, Postemergence; visual injury after approximately 10 d; 0 to 100 scale where 0 is no effect and 100 is complete control; read-out: Plant response rating, Ragweed
Method in brief: as §1

[14] = tested on: ryegrass, Italian (Italian ryegrass, Lolium multiflorum); assay: Test A postemergence; details: Lolium multiflorum, post-emergence, 240 h, 125 g ai/ha, Postemergence; visual injury after approximately 10 d; 0 to 100 scale where 0 is no effect and 100 is complete control; read-out: Plant response rating, Ryegrass, Italian
Method in brief: as §1

[15] = tested on: wheat (Triticum aestivum); assay: Test A postemergence; details: Triticum aestivum, post-emergence, 240 h, 125 g ai/ha, Postemergence; visual injury after approximately 10 d; 0 to 100 scale where 0 is no effect and 100 is complete control; read-out: Plant response rating, Wheat
Method in brief: as §1

[16] = tested on: barnyardgrass (Echinochloa crus-galli); assay: Test B flooded paddy test; details: Echinochloa crus-galli, Flood, 250 g ai/ha; scale of 0 to 100 where 0 is no effect and 100 is complete control; read-out: Barnyardgrass plant response rating
Method in brief: (§2)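 Greenhouse paddy pots with 2-leaf stage plants received compound by direct addition to floodwater 3 cm deep, kept at that level. Scored visually at 13–15 d versus controls (0 no effect; 100 complete control).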

[17] = tested on: ducksalad (Heteranthera limosa); assay: Test B flooded paddy test; details: Heteranthera limosa, Flood, 250 g ai/ha; scale of 0 to 100 where 0 is no effect and 100 is complete control; read-out: Ducksalad plant response rating
Method in brief: as §2

rice (Oryra sativa) = assay: Test B flooded paddy test; details: Oryza sativa, Flood, 250 g ai/ha; scale of 0 to 100 where 0 is no effect and 100 is complete control; read-out: Rice plant response rating
Method in brief: as §2

[18] = tested on: sedge, umbrella (small-flower umbrella sedge, Cyperus difformis); assay: Test B flooded paddy test; details: Cyperus difformis, Flood, 250 g ai/ha; scale of 0 to 100 where 0 is no effect and 100 is complete control; read-out: Sedge, Umbrella plant response rating
Method in brief: as §2

| Structure (SMILES) | pest or weed control at 125 g/ha (Kochia (Kochia scoparia) [1]) [%] | pest or weed control at 500 g/ha (Kochia (Kochia scoparia) [1]) [%] | pest or weed control at 125 g/ha [2] [%] | pest or weed control at 500 g/ha [2] [%] | pest or weed control at 125 g/ha [3] [%] | pest or weed control at 500 g/ha [3] [%] | pest or weed control at 125 g/ha [4] [%] | pest or weed control at 500 g/ha [4] [%] | pest or weed control at 125 g/ha [5] [%] | pest or weed control at 500 g/ha [5] [%] | pest or weed control at 125 g/ha [6] [%] | pest or weed control at 500 g/ha [6] [%] | pest or weed control at 125 g/ha [7] [%] | pest or weed control at 125 g/ha (Kochia (Kochia scoparia) [8]) [%] | pest or weed control at 125 g/ha [9] [%] | pest or weed control at 125 g/ha [10] [%] | Corn plant response rating (crop injury, 0 = no effect, 100 = complete kill) at 125 g/ha (corn (Zea mays)) [%] | pest or weed control at 125 g/ha [11] [%] | pest or weed control at 125 g/ha [12] [%] | pest or weed control at 125 g/ha [13] [%] | also measured |
| --- | --- | --- | --- | --- | --- | --- | --- | --- | --- | --- | --- | --- | --- | --- | --- | --- | --- | --- | --- | --- | --- |
| CN1C[C@H](c2ccc(C(F)(F)F)cc2)[C@@H](C(=O)Nc2ccccc2Br)C1=O [Compound 943] | 70 | 80 | 90 | 90 | 90 | 90 | 40 | 50 | 0 | 30 | 0 | 50 | 70 | 30 | 70 | 40 | 20 | 90 | 40 | 0 | pest or weed control at 125 g/ha [14]: 0%; plant injury at 125 g/ha [15]: 0%; pest or weed control at 250 g/ha [16]: 0%; pest or weed control at 250 g/ha [17]: 50%; pest or weed control at 250 g/ha (rice (Oryra sativa)): 0%; pest or weed control at 250 g/ha [18]: 0% |
| CCOc1cccc([C@H]2CNC(=O)[C@@H]2C(=O)Nc2ccccc2F)c1 [Compound 949] | 20 | 50 | 70 | 100 | 60 | 70 | 0 | 0 | 0 | 0 | 0 | 0 | 0 | 0 | 90 | 0 | 0 | 20 | 0 | 0 | pest or weed control at 125 g/ha [14]: 0%; plant injury at 125 g/ha [15]: 0%; pest or weed control at 250 g/ha [16]: 30%; pest or weed control at 250 g/ha [17]: 100%; pest or weed control at 250 g/ha (rice (Oryra sativa)): 15%; pest or weed control at 250 g/ha [18]: 0% |
| CN1C[C@H](c2csc(C(F)(F)F)c2)[C@@H](C(=O)Nc2ccccc2F)C1=O [Compound 958] | 0 | 90 | 90 | 90 | 90 | 90 | 0 | 30 | 20 | 60 | 0 | 20 | 30 | 0 | 70 | 30 | 0 | 90 | 0 | 0 | pest or weed control at 125 g/ha [14]: 0%; plant injury at 125 g/ha [15]: 0%; pest or weed control at 250 g/ha [16]: 55%; pest or weed control at 250 g/ha [17]: 100%; pest or weed control at 250 g/ha (rice (Oryra sativa)): 15%; pest or weed control at 250 g/ha [18]: 0% |
| O=C1NC[C@H](c2cc(C(F)(F)F)cs2)[C@H]1C(=O)Nc1cccc(F)c1F [Compound 961] | 70 | 90 | 90 | 90 | 70 | 90 | 0 | 30 | 60 | 90 | 30 | 80 | 30 | 50 | 90 | 30 | 20 | 30 | 0 | 20 | pest or weed control at 125 g/ha [14]: 20%; plant injury at 125 g/ha [15]: 0%; pest or weed control at 250 g/ha [16]: 40%; pest or weed control at 250 g/ha [17]: 100%; pest or weed control at 250 g/ha (rice (Oryra sativa)): 20%; pest or weed control at 250 g/ha [18]: 0% |
